In test [1] the target is T1, RARγ (Mus musculus, UniProt P18911).
T1 sequence (P18911 1-458): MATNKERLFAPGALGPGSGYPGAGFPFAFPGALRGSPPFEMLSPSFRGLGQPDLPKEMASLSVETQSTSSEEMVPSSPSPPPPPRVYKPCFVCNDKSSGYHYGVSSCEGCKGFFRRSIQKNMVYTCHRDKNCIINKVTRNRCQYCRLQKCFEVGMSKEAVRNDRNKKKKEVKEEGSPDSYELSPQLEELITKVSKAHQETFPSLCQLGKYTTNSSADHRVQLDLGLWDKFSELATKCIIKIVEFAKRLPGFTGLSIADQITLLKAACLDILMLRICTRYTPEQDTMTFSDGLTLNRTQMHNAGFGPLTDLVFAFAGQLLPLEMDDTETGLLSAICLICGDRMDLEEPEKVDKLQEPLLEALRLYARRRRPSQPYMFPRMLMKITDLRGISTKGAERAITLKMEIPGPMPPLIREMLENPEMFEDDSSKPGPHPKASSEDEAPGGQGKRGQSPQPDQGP
The settings on record: read-out: IC50, ability to displace all-trans RA; cited from earlier work.

Test [2] has as its target T2, monomeric mouse RARa (Mus musculus, UniProt P11416).
T2 sequence (P11416 1-462): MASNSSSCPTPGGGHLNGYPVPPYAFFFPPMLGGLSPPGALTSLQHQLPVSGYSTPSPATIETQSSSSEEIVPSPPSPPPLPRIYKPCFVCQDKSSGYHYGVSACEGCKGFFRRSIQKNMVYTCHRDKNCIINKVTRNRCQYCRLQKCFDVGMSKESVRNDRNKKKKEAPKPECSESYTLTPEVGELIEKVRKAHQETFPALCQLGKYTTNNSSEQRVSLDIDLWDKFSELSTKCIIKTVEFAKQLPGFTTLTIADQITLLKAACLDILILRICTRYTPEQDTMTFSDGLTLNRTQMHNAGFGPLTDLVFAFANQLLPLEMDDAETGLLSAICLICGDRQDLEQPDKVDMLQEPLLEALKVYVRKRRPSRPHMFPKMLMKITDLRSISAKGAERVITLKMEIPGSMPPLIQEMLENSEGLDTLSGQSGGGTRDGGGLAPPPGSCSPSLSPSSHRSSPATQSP
The note with it: read-out: IC50, ability to displace all-trans RA; cited from earlier work.

Test [3] has as its system breast cancer, prostate cancer or leukemia. Put plainly: Example 4: patients with breast cancer, prostate cancer or leukemia. Format: in vivo, human. The note with it: oral 100 mg/square meter with oral IRESSA.
In test [4] the target is T3, RARg ligand binding domain (Homo sapiens, UniProt P13631).
T3 construct: expressed in transfected cells; host or cells: CV-1 cells
The settings on record: CV-1 cell transfectants, cited from earlier work.

Test [5] relates to ER+ or ER− tumor lines. The settings on record: all the ER+ or ER− tumor lines examined; cited from earlier work.

T3 sequence (P04386 1-147 partner limits assumed, species assumed, one chain of several): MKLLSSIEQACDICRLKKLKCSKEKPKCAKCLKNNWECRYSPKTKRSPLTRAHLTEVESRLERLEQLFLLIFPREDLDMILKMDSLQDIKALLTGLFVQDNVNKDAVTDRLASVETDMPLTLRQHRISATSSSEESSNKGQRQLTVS

Usually IC50 stands for the midpoint of a concentration-inhibition curve. Consider `CC(C=CC1=C(C)C(=O)CCC1(C)C)=CC=CC(C)=CCO` [4-oxo-retinol], for which the IC50 in test [1] is 3.2 µM; in test [2], 0.33 µM. Besides, the “tumor burden versus IRESSA alone” value in test [3] is “reduced tumor burden”. The “activity on GAL4 chimeras by RAR ligand binding domain” value in test [4] (chimera with ligand binding domain of RARg) is “highest activity”. Also, the “RARg activation compared with all-trans RA” value in test [4] is on record as “greater ability to induce RARg activation than all-trans RA”. Besides, the growth inhibition result in test [5] is reported as “growth inhibitory”.

(Values after patent publication US20060281813A1, “Methods of treating hyperproliferative cell disorders” (priority 2003, published 2006).)
